Laboratory results from ChEMBL document CHEMBL1909046, “DrugMatrix in vitro pharmacology data”.

How the values were obtained:
Caspase-1 = target: T1, Caspase-1 (Homo sapiens, UniProt P29466); design: species or system Escherichia coli;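 further: Caspase-1 enzyme inhibition assay with a peptide substrate; in other assays of this panel Not Active means under 50% inhibition at 10 µM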
T1 sequence (P29466 whole entry): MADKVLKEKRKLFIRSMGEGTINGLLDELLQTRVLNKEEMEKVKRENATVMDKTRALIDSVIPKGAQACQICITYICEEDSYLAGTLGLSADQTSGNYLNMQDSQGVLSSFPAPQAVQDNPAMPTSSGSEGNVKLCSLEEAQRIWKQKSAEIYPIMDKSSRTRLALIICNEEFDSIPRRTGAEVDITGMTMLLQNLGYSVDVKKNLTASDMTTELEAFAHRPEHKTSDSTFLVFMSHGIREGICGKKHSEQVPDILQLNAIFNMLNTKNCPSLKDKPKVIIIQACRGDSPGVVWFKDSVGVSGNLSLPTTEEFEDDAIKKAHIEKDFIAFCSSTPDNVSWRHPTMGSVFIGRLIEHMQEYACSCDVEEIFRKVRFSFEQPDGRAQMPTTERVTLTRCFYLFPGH

Substance-P receptor = Substance-P receptor (Homo sapiens, UniProt P25103); format: cell membranes, CHO, Membrane; further: in other assays of this panel Not Active means under 50% inhibition at 10 µM
Melanocortin receptor 4 = Melanocortin receptor 4 (Homo sapiens, UniProt P32245); format: cell membranes, HEK293, Membrane; further: in other assays of this panel Not Active means under 50% inhibition at 10 µM
Carbonic anhydrase 2 = Carbonic anhydrase 2 (Homo sapiens, UniProt P00918); assay: DRUGMATRIX: Carbonic Anhydrase II enzyme inhibition (substrate: 4-Nitrophenyl acetate (4-NPA)); format: tissue-based, Erythrocyte; conditions: Not Active = under 50% inhibition at 10 µM
Progesterone receptor = target: T2, Progesterone receptor (Bos taurus, UniProt Q690N0); assay: DRUGMATRIX: Progesterone radioligand binding (ligand: [3H] R-5020); format: tissue-based, Uterus; conditions: Not Active = under 50% inhibition at 10 µM; for Ki: read-out: Ki
T2 sequence (Q690N0 whole entry): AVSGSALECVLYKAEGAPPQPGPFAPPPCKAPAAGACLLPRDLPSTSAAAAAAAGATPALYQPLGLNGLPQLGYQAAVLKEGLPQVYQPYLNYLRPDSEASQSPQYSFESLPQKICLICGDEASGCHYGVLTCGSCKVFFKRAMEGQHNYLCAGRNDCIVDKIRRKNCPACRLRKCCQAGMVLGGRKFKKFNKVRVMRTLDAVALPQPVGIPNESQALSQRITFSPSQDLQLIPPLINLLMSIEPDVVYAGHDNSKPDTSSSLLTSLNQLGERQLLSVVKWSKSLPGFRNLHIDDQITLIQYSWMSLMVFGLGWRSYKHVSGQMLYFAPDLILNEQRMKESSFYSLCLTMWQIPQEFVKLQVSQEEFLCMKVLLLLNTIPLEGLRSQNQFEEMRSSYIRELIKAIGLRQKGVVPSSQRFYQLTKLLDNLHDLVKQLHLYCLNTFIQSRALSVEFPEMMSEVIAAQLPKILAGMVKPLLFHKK

Leukotriene C4 synthase = target: T3, Leukotriene C4 synthase (Cavia porcellus, UniProt A6XA80); format: tissue-based, Lung;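 further: enzyme inhibition assay of leukotriene C4 synthase, using LTA4 as the substrate; in other assays of this panel Not Active means under 50% inhibition at 10 µM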
T3 sequence (A6XA80 whole entry): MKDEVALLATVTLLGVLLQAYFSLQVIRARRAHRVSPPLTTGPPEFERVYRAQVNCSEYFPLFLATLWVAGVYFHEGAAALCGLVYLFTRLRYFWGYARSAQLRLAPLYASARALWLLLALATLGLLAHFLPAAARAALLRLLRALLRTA

Chain of Melanocortin receptor 4 (P32245 whole entry): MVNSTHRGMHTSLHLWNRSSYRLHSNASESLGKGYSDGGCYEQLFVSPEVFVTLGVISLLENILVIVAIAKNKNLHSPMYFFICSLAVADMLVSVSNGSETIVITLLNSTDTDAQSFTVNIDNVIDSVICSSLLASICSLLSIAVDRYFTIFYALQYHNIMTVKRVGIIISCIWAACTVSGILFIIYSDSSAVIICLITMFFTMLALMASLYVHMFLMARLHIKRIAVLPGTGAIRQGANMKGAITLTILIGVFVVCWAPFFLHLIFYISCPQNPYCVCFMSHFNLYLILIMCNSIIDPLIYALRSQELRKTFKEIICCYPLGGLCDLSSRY
Chain of Substance-P receptor (P25103 whole entry): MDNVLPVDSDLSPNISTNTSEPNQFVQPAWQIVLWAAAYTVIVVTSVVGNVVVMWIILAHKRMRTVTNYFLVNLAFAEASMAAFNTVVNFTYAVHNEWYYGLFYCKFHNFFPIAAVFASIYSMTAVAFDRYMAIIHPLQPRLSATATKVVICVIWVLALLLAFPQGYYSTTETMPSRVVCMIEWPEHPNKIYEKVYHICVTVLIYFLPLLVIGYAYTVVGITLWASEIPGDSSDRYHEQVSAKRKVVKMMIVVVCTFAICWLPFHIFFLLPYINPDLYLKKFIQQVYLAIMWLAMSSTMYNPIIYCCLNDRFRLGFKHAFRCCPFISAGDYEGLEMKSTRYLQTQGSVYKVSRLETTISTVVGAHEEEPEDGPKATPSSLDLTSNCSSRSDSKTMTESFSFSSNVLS

SMILES	IC50 (Caspase-1)	IC50 (Substance-P receptor; cho)	IC50 (Melanocortin receptor 4; hek293)	IC50 (Carbonic anhydrase 2; erythrocyte)	IC50 (Progesterone receptor)	IC50 (Leukotriene C4 synthase)	IC50 (Caspase-1; read-out: IC50) [µM]	IC50 (Substance-P receptor; read-out: IC50) [µM]	Ki (Substance-P receptor; read-out: Ki) [µM]	IC50 (Melanocortin receptor 4; read-out: IC50) [µM]	Ki (Melanocortin receptor 4; read-out: Ki) [µM]	IC50 (Progesterone receptor; read-out: IC50) [µM]	Ki (Progesterone receptor) [µM]	IC50 (Carbonic anhydrase 2; read-out: IC50) [µM]
CN1CCN(CCCN2c3ccccc3Sc3ccc(Cl)cc32)CC1 [PROCHLORPERAZINE]	Not Active	Not Active	Not Active	Not Active	Not Active	Not Active								
CO[C@H]1/C=C/O[C@@]2(C)Oc3c(C)c(O)c4c(O)c(c(/C=N/N5CCN(C)CC5)c(O)c4c3C2=O)NC(=O)/C(C)=C\C=C\[C@H](C)[C@H](O)[C@@H](C)[C@@H](O)[C@@H](C)[C@H](OC(C)=O)[C@@H]1C [RIFAMPIN]		Not Active	Not Active	Not Active	Not Active	Not Active	8.32							
Nc1nc2ccc(OC(F)(F)F)cc2s1 [RILUZOLE]	Not Active	Not Active	Not Active	Not Active	Not Active	Not Active								
Cc1nc2n(c(=O)c1CCN1CCC(c3noc4cc(F)ccc34)CC1)CCCC2 [RISPERIDONE]	Not Active	Not Active	Not Active	Not Active	Not Active	Not Active								
C=CCC1(C(C)CCC)C(=O)NC(=O)NC1=O (stereo unspecified) [SECOBARBITAL]	Not Active	Not Active	Not Active	Not Active	Not Active	Not Active								
C[C@@H]1CN(c2c(F)c(N)c3c(=O)c(C(=O)O)cn(C4CC4)c3c2F)C[C@H](C)N1 [SPARFLOXACIN]	Not Active	Not Active	Not Active	Not Active	Not Active	Not Active								
Cc1noc(NS(=O)(=O)c2ccc(N)cc2)c1C [SULFISOXAZOLE]	Not Active	Not Active	Not Active	Not Active	Not Active	Not Active								
CSc1ccc(/C=C2/C(C)=C(CC(=O)O)c3cc(F)ccc32)cc1 [SULINDAC SULFIDE]	Not Active	Not Active	Not Active	Not Active	Not Active	Not Active								
Nc1c2c(nc3ccccc13)CCCC2 [TACRINE]	Not Active	Not Active	Not Active	Not Active	Not Active	Not Active								
CC/C(=C(\c1ccccc1)c1ccc(OCCN(C)C)cc1)c1ccccc1 [TAMOXIFEN]	Not Active			Not Active		Not Active		15.7	8.54	30.5	29.3	19.8	2.59	
CC(C)N1CCN(c2ccc(OCC3COC(Cn4cncn4)(c4ccc(Cl)cc4Cl)O3)cc2)CC1 (stereo unspecified) [TERCONAZOLE]	Not Active	Not Active	Not Active	Not Active	Not Active	Not Active								
Nc1nc2nc[nH]c2c(=S)[nH]1 [THIOGUANINE]	Not Active	Not Active	Not Active	Not Active	Not Active	Not Active								
Cc1cccc(N(C)C(=S)Oc2ccc3ccccc3c2)c1 [TOLNAFTATE]	Not Active	Not Active	Not Active	Not Active	Not Active	Not Active								
NC[C@H]1CC[C@H](C(=O)O)CC1 [TRANEXAMIC ACID]	Not Active	Not Active	Not Active	Not Active	Not Active	Not Active								
CC1(C)O[C@@H]2C[C@H]3[C@@H]4CCC5=CC(=O)C=C[C@]5(C)[C@@]4(F)[C@@H](O)C[C@]3(C)[C@]2(C(=O)CO)O1 [TRIAMCINOLONE ACETONIDE]	Not Active	Not Active	Not Active	Not Active		Not Active						0.179	0.023	
NS(=O)(=O)c1cc2c(cc1Cl)NC(C(Cl)Cl)NS2(=O)=O (stereo unspecified) [TRICHLORMETHIAZIDE]	Not Active	Not Active	Not Active	Not Active	Not Active	Not Active								
Cc1c(C)c2c(c(C)c1O)CCC(C)(COc1ccc(CC3SC(=O)NC3=O)cc1)O2 (stereo unspecified) [TROGLITAZONE]	Not Active	Not Active	Not Active		Not Active	Not Active								0.97
